# Read-outs that look alike come from different tables or passages of the source.
# Experiments:
# BSA = biological target: T1, BSA (Bos taurus, UniProt P02769); assay: BSA fluorescence quenching titration; format: binding, bovine; conditions: for KBSA, Stern–Volmer quenching constant: BSA 3 × 10^−6 M, PBS pH 7.4; for Kq, quenching rate constant: τ0 = 1 × 10^−8
# T1 construct: purchased Himedia Chemicals
# Experimental: BSA stock solution (5 mM) was prepared in 5 mM phosphate buffer (pH 7.4) and then kept at 2–6 °C. The binding mechanism of the Ti(IV) complexes with BSA was established using fluorescence titration at 200–500 nm. Metal complexes with BSA were quenched by tracking changes in the fluorescence intensity at a certain excitation wavelength of 285 nm and emission value at 345 nm, respectively.[52] Identical excitation and emission scan rates and slit widths were employed in all investigations. In order to titrate against different metal complex concentrations ranging from 0 to 80 μM, a constant protein concentration of BSA was used. Similarly, the synchronous fluorescence spectra were also acquired by titrating different metal complex concentrations ranging from 0 to 80 μM while maintaining a constant BSA at the specified excitation wavelengths, λ = 15 nm and 60 nm.[53,54]
# Ti(IV) complexes of (1 × 10^−5 M) concentration were gradually added, ranging from 0 to 72 μM to bind with BSA (3 × 10^−6 M) of fixed concentration in PBS buffer of pH 7.4. […] This phenomenon might be caused by modifications to the secondary or tertiary structures of BSA, which could have an impact on the tryptophan residues of the BSA microenvironment. Typically, the Stern–Volmer eqn (8) can be used to characterize fluorescence quenching.8 I0/I = 1+KBSA[Q] = 1 + kqτ0[Q]where τ0 is the lifetime of the tryptophan in BSA, which is determined to be 1 × 10^−8, kq is the quenching constant, I0 is the fluorescence intensity of BSA in the absence of complex and I denotes the fluorescence intensities of BSA in the presence of a complex of concentration [Q]. The quenching rate constant, dynamic quenching constant, average lifetime without quencher, and quencher concentration of the biomolecule are represented by the values of kq, KBSA, τ0 and [Q], respectively.
# The binding constant (Kb) and the number of binding sites (n) for the static quenching interaction can be determined using the Scatchard eqn (9),9 Log(I0 − I/I) = log K + n log[Q]where I0 and I are the fluorescence intensities of BSA with and without quenchers (complexes). Fig. 7(c), Table 3 and ESI Fig. S70 ^† display the double logarithmic plot of log[I0 − I/I] vs. log[complex].
# [1] = Stability studies by UV-vis in DMSO:H2O and aqueous GSH medium; format: physicochemical; conditions: DMSO : H2O (1 : 9, v/v) and aqueous GSH medium, over 72 hours
# Experimental: Stability studies were carried out using DMSO : H2O medium (1 : 9, v/v) and aqueous GSH medium to perform stability tests on the freshly synthesized Ti(IV) complexes over 72 hours.
# CT-DNA = assay: Competitive EtBr displacement fluorescence quenching on CT-DNA; format: binding, calf; conditions: for KSV, Stern–Volmer quenching constant: EB-CT-DNA adduct
# Experimental: Using fluorescence spectroscopy, the competitive binding relationship between metal complexes and CT-DNA bound to ethidium bromide was investigated. EtBr and CT-DNA solutions at a 5 mM concentration were made in PBS buffer (pH 7.4) for the fluorescence studies. After that, the reference solutions were allowed to settle at room temperature for an hour and the CT-DNA reference solution (200 μM) was coupled to ethidium bromide (50 μM) and allowed to rest for the specified period. The excitation and emission wavelengths were set at 460 nm and incremental addition of Ti(IV) complex concentrations ranging from 0 to 80 μM were used to titrate constant concentrations of EtBr-CT-DNA solution.[43,44]
# A known volume of 200 μM CT-DNA (5 Mm) and 50 μM EB was mixed with an aqueous PBS buffer to make an EB-CT-DNA solution. The mixture was then kept at room temperature for 20 minutes before the complexes were titrated. Analysis of the competitive interaction mechanisms of the complexes towards CT-DNA involved the incremental addition of Ti(IV) complexes to the mixture of EB-CT-DNA. The modification in the emission spectral profile of EB-DNA indicated the impact of the addition of the complexes and there was a noticeable decrease in inflorescence intensity when the Ti(IV) complexes (0–100 μM) were added to the EB-CT-DNA system (Fig. 4(a), ESI Fig. S63 ^† and Table 2).
# The linear plot of I0/I versus [complex] […] KSV is the Stern–Volmer quenching constant, and [Q] is the quencher concentration.6 Kapp × [Complex]50 = KEtBr × [EtBr]For the Ti(IV) complexes, Kapp (the apparent binding constant) was calculated using eqn (6), where KEtBr (1.0 × 10^7 M^−1) is the DNA binding constant of EB, [EtBr] is the concentration of EB = 10 μM and [Complex]50 denotes the complex concentration at which the fluorescence intensity of the DNA-EB adduct is reduced to 50%. […] Furthermore, the number of binding sites (n) and the equilibrium binding constant K were ascertained by using the Scatchard eqn (7):7 Log(I0 − I/I) = log K + n log[Q]where I0 is the fluorescence intensity of CT-DNA + EtBr in the absence of complex and I points to the fluorescence intensities of CT-DNA in the presence of a complex of concentration [Q]. The significant quenching in fluorescence intensity of all metal complexes (Table 2), the Stern–Volmer (ESI Fig. S64 ^†) and Scatchard plots (Fig. 4(c), ESI Fig. S65 ^† and Table 2), and other computations performed, supported the strong groove-binding interaction mode with CT-DNA.
# [2] = Scatchard plot, 298 K, no site probe
# [3] = from eqn (6), complex concentration at 50% fluorescence
# T1 sequence (P02769 25-607): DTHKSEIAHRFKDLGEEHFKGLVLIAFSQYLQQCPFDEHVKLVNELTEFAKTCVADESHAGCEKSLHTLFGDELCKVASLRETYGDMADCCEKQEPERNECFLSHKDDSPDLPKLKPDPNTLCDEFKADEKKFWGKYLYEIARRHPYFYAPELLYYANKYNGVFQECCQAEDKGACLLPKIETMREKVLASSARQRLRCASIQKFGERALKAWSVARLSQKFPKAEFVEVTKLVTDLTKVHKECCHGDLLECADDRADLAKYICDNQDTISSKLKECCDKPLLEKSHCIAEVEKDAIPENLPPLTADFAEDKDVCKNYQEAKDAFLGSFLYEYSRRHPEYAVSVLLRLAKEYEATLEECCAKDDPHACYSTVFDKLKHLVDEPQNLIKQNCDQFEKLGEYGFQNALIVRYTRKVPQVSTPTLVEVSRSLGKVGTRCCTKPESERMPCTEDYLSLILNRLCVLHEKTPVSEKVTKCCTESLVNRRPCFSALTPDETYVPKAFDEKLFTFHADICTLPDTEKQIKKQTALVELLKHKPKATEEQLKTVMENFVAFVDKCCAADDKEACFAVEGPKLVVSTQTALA
"KBSA, Stern–Volmer quenching constant (BSA)","n, number of binding sites (BSA) (BSA; Scatchard plot, 298 K)",Kb binding constant (BSA) (BSA; [2]),"Kq, quenching rate constant (BSA)",Stability [1],KBSA (BSA),Kb binding constant (BSA) (BSA),SMILES,"KSV, Stern–Volmer quenching constant (CT-DNA)","Kapp, apparent DNA binding constant (CT-DNA; [3])","KSV, Stern–Volmer quenching constant (CT-DNA; text value)","Kapp, apparent DNA binding constant (CT-DNA)"
175000 M⁻¹,1.31,400 M⁻¹,1.75e+13 M⁻¹ s⁻¹,did not change much,–,–,[O-]C(=NN=Cc1ccccc1[O-])c1ccncc1.[O-]C(=NN=Cc1ccccc1[O-])c1ccncc1.[Ti+4] [Ti-1-IS],6000 M⁻¹,3.03e+06 M⁻¹,–,–
112000 M⁻¹,1.07,650 M⁻¹,1.12e+13 M⁻¹ s⁻¹,remained constant,–,650 M⁻¹,[O-]C(=NN=Cc1cc(Cl)ccc1[O-])c1ccncc1.[O-]C(=NN=Cc1cc(Cl)ccc1[O-])c1ccncc1.[Ti+4] [Ti-5-ICl],26000 M⁻¹,3.43e+06 M⁻¹,26000 M⁻¹,–

# The remaining lines, values behind:
SMILES,"KBSA, Stern–Volmer quenching constant (BSA)","n, number of binding sites (BSA) (BSA; Scatchard plot, 298 K)",Kb binding constant (BSA) (BSA; [2]),"Kq, quenching rate constant (BSA)",Stability [1],KBSA (BSA),Kb binding constant (BSA) (BSA),"KSV, Stern–Volmer quenching constant (CT-DNA)","Kapp, apparent DNA binding constant (CT-DNA; [3])","KSV, Stern–Volmer quenching constant (CT-DNA; text value)","Kapp, apparent DNA binding constant (CT-DNA)"
[O-]C(=NN=Cc1c([O-])ccc2ccccc12)c1ccncc1.[O-]C(=NN=Cc1c([O-])ccc2ccccc12)c1ccncc1.[Ti+4] [Ti-2-IN],105000 M⁻¹,1.26,470 M⁻¹,1.05e+13 M⁻¹ s⁻¹,did not change much,–,–,19000 M⁻¹,3.56e+06 M⁻¹,–,–
COc1cccc(C=NN=C([O-])c2ccncc2)c1[O-].COc1cccc(C=NN=C([O-])c2ccncc2)c1[O-].[Ti+4] [Ti-3-IO],277000 M⁻¹,1.42,360 M⁻¹,2.77e+13 M⁻¹ s⁻¹,small degree of hyperchromism,277000 M⁻¹,–,16000 M⁻¹,3.4e+06 M⁻¹,–,–
[O-]C(=NN=Cc1cc(F)ccc1[O-])c1ccncc1.[O-]C(=NN=Cc1cc(F)ccc1[O-])c1ccncc1.[Ti+4] [Ti-4-IF],197000 M⁻¹,1.60,110 M⁻¹,1.97e+13 M⁻¹ s⁻¹,small degree of hyperchromism,–,–,14000 M⁻¹,3.41e+06 M⁻¹,–,–
Brc1ccc2c(c1)C=NN=C(c1ccncc1)[O][Ti]1([O]C(c3ccncc3)=NN=Cc3cc(Br)ccc3[O]1)[O]2 (stereo not shown) [Ti-6-IBr],85000 M⁻¹,1.35,140 M⁻¹,8.5e+12 M⁻¹ s⁻¹,small degree of hyperchromism,–,–,16000 M⁻¹,4.24e+06 M⁻¹,–,4.24e+06 M⁻¹

# Reference: publication PMC12264794, “Homoleptic complexes of titanium(IV) fused with O^N^O Schiff base derivatives: design, BSA–DNA interaction, molecular docking, DFT and cytotoxicity” (RSC Advances, 2025)
